Measurements as given in patent US5998438A, “5-cyclo indole compounds” (Allelix Biopharmaceuticals, Inc., priority 1997, dated 1999).
Like-named read-outs stand apart in the source and are kept apart here.

Biological target: T1, 5-HT1D-like receptor (Oryctolagus cuniculus, UniProt P49144)
T1 construct: Ring segments of the vein (4-5 mm in length) were cut and the endothelium gently removed; from tissue; host or cells: saphenous vein rings (endothelium removed) of male New Zealand White rabbits
Experiment: Agonist assay: contraction of rabbit isolated saphenous vein (5-HT1D-like receptor agonist activity)
Design: species or system rabbit (male New Zealand White)

[1] = rabbit isolated saphenous vein ring segments, concentration causing 50% of the maximum contraction effected by the compound, with prazosin, idazoxan and indomethacin, 37° C., pH 7.4, read-out: EC50

T1 sequence (P49144 whole entry): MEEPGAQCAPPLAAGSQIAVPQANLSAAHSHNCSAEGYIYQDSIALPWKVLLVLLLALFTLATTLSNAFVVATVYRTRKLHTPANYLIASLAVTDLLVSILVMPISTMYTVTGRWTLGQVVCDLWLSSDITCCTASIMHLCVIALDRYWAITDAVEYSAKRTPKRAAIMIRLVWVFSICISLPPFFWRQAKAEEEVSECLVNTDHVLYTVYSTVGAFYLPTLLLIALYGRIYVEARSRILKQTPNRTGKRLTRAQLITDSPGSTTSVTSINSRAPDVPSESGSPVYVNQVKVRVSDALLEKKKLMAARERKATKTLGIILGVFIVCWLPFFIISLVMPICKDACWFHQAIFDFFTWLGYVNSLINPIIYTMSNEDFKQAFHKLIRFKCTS

SMILES	EC50 [1] [µM]	EC50 [µM]
C1=C(c2ccc3[nH]cc(CCN4CCCC4)c3c2)CCN(Cc2ccccc2)C1 [Example 15, 5-(1-Aza-1-benzylcyclohex-3-en-4-yl)-3-(2-pyrrolidinylethyl)-1H-indole]	0.22	–
CN(C)CCc1c[nH]c2ccc(C3CCCCC3)cc12 [Example 17a, 5-Cyclohexyl-3-[2-(N,N-dimethylamino)ethyl]-1H-indole]	–	0.25
CN1CCC[C@H]1Cc1c[nH]c2ccc(C3CCN(C(=O)OC(C)(C)C)CC3)cc12 [Example 17d, (S)-5-(1-Aza-1-tert-butoxycarbonylcyclohex-4-yl)-3-[(N-methylpyrrolidin-2-yl)methyl]-1H-indole]	0.75	–
CN(C)CCc1c[nH]c2ccc(C3=CCCCC3)cc12 [Example 9a, 5-(Cyclohex-1-en-1-yl)-3-[2-(N,N-dimethylamino)ethyl]-1H-indole]	–	0.96
CN(C)CCc1c[nH]c2ccc(C3CCCCO3)cc12 (centres unmarked) [Example 9b, 3-[2-(N,N-Dimethylamino)ethyl]-5-(tetrahydropyran-2-yl)-1H-indole]	–	0.16
